From patent US7947727B2, “Compounds” (GlaxoGroupLimited, priority 2006, dated 2011)

System: NFκB activity
Assay: Glucocorticoid Mediated Transrepression of NFκB Activity (A549 ELAM promoter alkaline phosphatase reporter)
Type: cell-based
Conditions: Human A549 lung epithelial cells, 3 ng/ml human recombinant TNFα, 16 hours, read-out: pEC50, transrepression of NFκB activity (converted)
Source text: Human A549 lung epithelial cells were engineered to contain a secreted placental alkaline phosphatase gene under the control of the distal region of the NFκB dependent ELAM promoter as previously described in Ray, K. P., Farrow, S., Daly, M., Talabot, F. and Searle, N. “Induction of the E-selectin promoter by interleukin 1 and tumour necrosis factor alpha, and inhibition by glucocorticoids” Biochemical Journal (1997) 328: 707-15.
Compounds were solvated and diluted in DMSO, and transferred directly into assay plates such that the final concentration of DMSO was 0.7%. Following the addition of cells (40K per well), plates were incubated for 1 hour prior to the addition of 3 ng/ml human recombinant TNFα. Following continued incubation for 16 hours, alkaline phosphatase activity was determined by measuring the change in optical density at 405 nm with time following the addition of 0.7 volumes of assay buffer (1 mg/ml p-nitrophenylphosphate dissolved in 1M diethanolamine, 0.28M NaCl, 0.5 mM MgCl2). Dose response curves were constructed from which EC50 values were estimated.

Compound	EC50
CCN(CC(O)(CNc1cccc2c1cnn2-c1ccc(F)cc1)C(F)(F)F)C(=O)c1ccccc1C (single isomer, unassigned) [Example 6A, N-Ethyl-2-methyl-N-[3,3,3-trifluoro-2-({[1-(4-fluorophenyl)-1H-indazol-4-yl]amino}methyl)-2-hydroxypropyl]benzamide]	≤ 10 nM
CCN(CC(O)(CNc1cccc2c1cnn2-c1ccc(F)cc1)C(F)(F)F)C(=O)c1ccccc1F (stereo not shown) [Example 7, N-Ethyl-2-fluoro-N-[3,3,3-trifluoro-2-({[1-(4-fluorophenyl)-1H-indazol-4-yl]amino}methyl)-2-hydroxypropyl]benzamide]	≤ 10 nM
CCN(CC(O)(CNc1cccc2c1cnn2-c1ccccc1)C(F)(F)F)C(=O)c1ccccc1F (single isomer, unassigned) [Example 3A, N-Ethyl-2-fluoro-N-(3,3,3-trifluoro-2-hydroxy-2-{[(1-phenyl-1H-indazol-4-yl)amino]methyl}propyl)benzamide]	≤ 10 nM
CCN(CC(O)(CNc1cccc2c1cnn2-c1ccc(F)cc1)C(F)(F)F)C(=O)c1ccccc1F (single isomer, unassigned) [Example 7A, N-Ethyl-2-fluoro-N-[3,3,3-trifluoro-2-({[1-(4-fluorophenyl)-1H-indazol-4-yl]amino}methyl)-2-hydroxypropyl]benzamide]	≤ 10 nM
